Source: patent US20240217957A1, “HETEROCYCLIC COMPOUND AND USE THEREOF” (TAKEDA PHARMACEUTICAL COMPANY LIMITED, priority 2022, published 2024)

Biological target: T1, human OX2 receptor (Homo sapiens, UniProt O43614)
T1 construct: expressed in transfected cells
T1 sequence (O43614 1-444): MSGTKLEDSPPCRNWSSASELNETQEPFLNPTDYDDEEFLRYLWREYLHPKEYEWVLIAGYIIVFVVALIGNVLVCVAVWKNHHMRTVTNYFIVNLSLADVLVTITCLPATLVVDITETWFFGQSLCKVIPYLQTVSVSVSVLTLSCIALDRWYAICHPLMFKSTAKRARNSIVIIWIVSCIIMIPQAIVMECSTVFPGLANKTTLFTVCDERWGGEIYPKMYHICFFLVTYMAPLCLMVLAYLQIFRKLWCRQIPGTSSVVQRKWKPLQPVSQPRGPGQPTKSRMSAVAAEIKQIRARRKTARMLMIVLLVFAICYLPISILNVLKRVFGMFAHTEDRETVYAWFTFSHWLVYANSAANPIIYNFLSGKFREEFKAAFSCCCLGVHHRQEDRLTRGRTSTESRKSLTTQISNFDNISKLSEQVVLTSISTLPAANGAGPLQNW
Test: Measurement of orexin type 2 receptor agonist activity (calcium fluorescence, Fluo-4 AM, FDSS)
Assay type: cell-based
Conditions: compound at 3 μM; CHO cells forcibly expressing human OX2 receptor; DMSO = 0%, 10 nM orexin A (human) = 100%
Protocol: In order to obtain cell clones that stably express human orexin type 2 receptor, human orexin type 2 (residues 1-444, NCBI Reference Sequence: AK314279) was constructed in a pcDNA3.1 (+) vector (Invitrogen) to express in mammalian cells. This plasmid DNA was transfected into CHO-K1 cells by electroporation, and stable clones were obtained by limiting dilution using resistance to G418 as a selection marker.
CHO cells in which human OX2 receptor was forcibly expressed were seeded at 10,000 cells/well into a 384-well black transparent bottom plate (BD falcon), and were incubated at 37° C., 5% CO2 for 1 day after incubation at room temperature for 30 minutes. After removing the cell plate medium, assay buffer containing calcium indicator A (HBSS (Thermo Fisher Scientific), 20 mM HEPES (Thermo Fisher Scientific), 0.1% BSA (Sigma-Aldrich), 2.5 μg/mL Fluo-4 AM (Dojin Kagaku), 0.08% Pluronic F127 (Dojin Kagaku), 1.25 mM probenecid (Dojin Kagaku)) was added at 30 μL/well. After incubation in a 5% CO2 incubator at 37° C. for 30 minutes, it was incubated at room temperature for another 30 minutes. Add 10 μL/well of the test compound diluted with assay buffer B (HBSS, 20 mM HEPES, 0.1% BSA), and use FDSS uCELL (Hamamatsu Photonics) to measure the fluorescence value every 1 second for 1 minute, and then every 2 seconds for […]. It was measured for 1 minute and 40 seconds. The amount of fluorescence value when DMSO is added instead of the test compound is defined as 0%, and the amount of fluorescence value when orexin A (human) (Peptide Institute) with a final concentration of 10 nM is added is defined as 100%. The activity (%) of the test compound was calculated.

In order of falling “OX2R agonist activity (3 μM, %)” value:
1. CCS(=O)(=O)N[C@@H]1CN(C2=NOC(c3ncc(C)cc3-c3c(F)cc(F)cc3F)(C(F)F)C2)CC1(F)F (stereo partly drawn) [Example 13, N-[(3R)-1-{5-(difluoromethyl)-5-[5-methyl-3-(2,4,6-trifluorophenyl)pyridin-2-yl]-4,5-dihydro-1,2-oxazol-3-yl}-4,4-difluoropyrrolidin-3-yl]ethanesulfonamide]  107%
2. Cc1cnc(C2(C(F)F)CC(N3C[C@@H](NS(C)(=O)=O)C(F)(F)C3)=NO2)c(-c2c(F)cc(F)cc2F)c1 (stereo partly drawn) [Example 14, N-[(3R)-1-{5-(difluoromethyl)-5-[5-methyl-3-(2,4,6-trifluorophenyl)pyridin-2-yl]-4,5-dihydro-1,2-oxazol-3-yl}-4,4-difluoropyrrolidin-3-yl]methanesulfonamide]  106%
3. Cc1cnc([C@@H]2CC(N3CC[C@H](NS(=O)(=O)C4(F)CC4)C3)=NO2)c(-c2c(F)cccc2F)c1 [Example 30, N-[(3S)-1-{(5S)-5-[3-(2,6-difluorophenyl)-5-methylpyridin-2-yl]-4,5-dihydro-1,2-oxazol-3-yl}pyrrolidin-3-yl]-1-fluorocyclopropane-1-sulfonamide]  104%
4. Cc1cnc([C@@H]2CC(N3C[C@@H](NS(=O)(=O)C(F)F)C(F)(F)C3)=NO2)c(-c2c(F)cccc2F)c1 [Example 31, N-[(3R)-1-{(5S)-5-[3-(2,6-difluorophenyl)-5-methylpyridin-2-yl]-4,5-dihydro-1,2-oxazol-3-yl}-4,4-difluoropyrrolidin-3-yl]-1,1-difluoromethanesulfonamide]  104%
5. CS(=O)(=O)N[C@@H]1CN(C2=NOC(c3ncc(C4CC4)cc3-c3c(F)cc(F)cc3F)C2)CC1(F)F (stereo partly drawn) [Example 18, N-[(3R)-1-{5-[5-cyclopropyl-3-(2,4,6-trifluorophenyl)pyridin-2-yl]-4,5-dihydro-1,2-oxazol-3-yl}-4,4-difluoropyrrolidin-3-yl]methanesulfonamide]  103%
6. Cc1cnc(C2(C)CC(N3C[C@@H](NS(C)(=O)=O)C(F)(F)C3)=NO2)c(-c2c(F)cc(F)cc2F)c1 (stereo partly drawn) [Example 10, N-[(3R)-4,4-difluoro-1-{5-methyl-5-[5-methyl-3-(2,4,6-trifluorophenyl)pyridin-2-yl]-4,5-dihydro-1,2-oxazol-3-yl}pyrrolidin-3-yl]methanesulfonamide]  102%
7. CCS(=O)(=O)N[C@@H]1CN(C2=NO[C@H](c3ncc(C)cc3-c3c(F)cccc3F)C2)CC1(F)F [Example 22, N-[(3R)-1-{(5S)-5-[3-(2,6-difluorophenyl)-5-methylpyridin-2-yl]-4,5-dihydro-1,2-oxazol-3-yl}-4,4-difluoropyrrolidin-3-yl]ethanesulfonamide]  102%
8. Cc1cnc(C2CC(N3C[C@@H](NS(C)(=O)=O)C(F)(F)C3)=NO2)c(-c2c(F)cccc2F)c1 (stereo partly drawn) [Example 21, N-[(3R)-1-{5-[3-(2,6-difluorophenyl)-5-methylpyridin-2-yl]-4,5-dihydro-1,2-oxazol-3-yl}-4,4-difluoropyrrolidin-3-yl]methanesulfonamide]  100%
9. Cc1cnc(C2(CO)CC(N3C[C@@H](NS(C)(=O)=O)C(F)(F)C3)=NO2)c(-c2c(F)cc(F)cc2F)c1 (stereo partly drawn) [Example 16, N-[(3R)-4,4-difluoro-1-{5-(hydroxymethyl)-5-[5-methyl-3-(2,4,6-trifluorophenyl)pyridin-2-yl]-4,5-dihydro-1,2-oxazol-3-yl}pyrrolidin-3-yl]methanesulfonamide]  99%
10. Cc1cnc([C@@H]2CC(N3C[C@H](F)[C@H](NS(C)(=O)=O)C3)=NO2)c(-c2c(F)cccc2F)c1 [Example 32, N-[(3R,4S)-1-{(5S)-5-[3-(2,6-difluorophenyl)-5-methylpyridin-2-yl]-4,5-dihydro-1,2-oxazol-3-yl}-4-fluoropyrrolidin-3-yl]methanesulfonamide]  98%
11. Cc1cnc([C@@H]2CC(N3CC[C@H](NS(C)(=O)=O)C3)=NO2)c(-c2c(F)cccc2F)c1 [Example 29, N-[(3S)-1-{(5S)-5-[3-(2,6-difluorophenyl)-5-methylpyridin-2-yl]-4,5-dihydro-1,2-oxazol-3-yl}pyrrolidin-3-yl]methanesulfonamide]  96%
12. Cc1cnc(C2CC(N3CC[C@@H](NS(C)(=O)=O)C(F)(F)CC3)=NO2)c(-c2c(F)cccc2F)c1 (stereo partly drawn) [Example 28, N-[(4R)-1-{5-[3-(2,6-difluorophenyl)-5-methylpyridin-2-yl]-4,5-dihydro-1,2-oxazol-3-yl}-5,5-difluoroazepan-4-yl]methanesulfonamide]  93%
13. CS(=O)(=O)N[C@@H]1CN(C2=NOC(CO)(c3ncc(F)cc3-c3c(F)cc(F)cc3F)C2)CC1(F)F (stereo partly drawn) [Example 15, N-[(3R)-4,4-difluoro-1-{5-[5-fluoro-3-(2,4,6-trifluorophenyl)pyridin-2-yl]-5-(hydroxymethyl)-4,5-dihydro-1,2-oxazol-3-yl}pyrrolidin-3-yl]methanesulfonamide]  92%
14. Cc1cnc(C2CC([C@@H]3CC[C@H](NS(C)(=O)=O)C3)=NO2)c(-c2c(F)cc(F)cc2F)c1 (stereo partly drawn) [Example 19, N-[(1S,3R)-3-{5-[5-methyl-3-(2,4,6-trifluorophenyl)pyridin-2-yl]-4,5-dihydro-1,2-oxazol-3-yl}cyclopentyl]methanesulfonamide]  92%
15. Cc1cnc(C2CC([C@H]3CC[C@H](NS(C)(=O)=O)C3)=NO2)c(-c2c(F)cc(F)cc2F)c1 (stereo partly drawn) [Example 25, N-[(1S,3S)-3-{5-[5-methyl-3-(2,4,6-trifluorophenyl)pyridin-2-yl]-4,5-dihydro-1,2-oxazol-3-yl}cyclopentyl]methanesulfonamide]  88%
16. Cc1cnc(C2CC(N3CC(F)(F)C3CNS(C)(=O)=O)=NO2)c(-c2c(F)cc(F)cc2F)c1 (stereo not shown) [Example 17, N-[(3,3-difluoro-1-{5-[5-methyl-3-(2,4,6-trifluorophenyl)pyridin-2-yl]-4,5-dihydro-1,2-oxazol-3-yl}azetidin-2-yl)methyl]methanesulfonamide]  80%
17. Cc1cnc(C2CC(N(C)[C@H]3C[C@@H](NS(C)(=O)=O)C3)=NO2)c(-c2c(F)cccc2F)c1 (stereo partly shown) [Example 27, N-{(1s,3s)-3-[{5-[3-(2,6-difluorophenyl)-5-methylpyridin-2-yl]-4,5-dihydro-1,2-oxazol-3-yl}(methyl)amino]cyclobutyl}methanesulfonamide]  77%
18. Cc1cn(-c2c(F)cccc2F)c(C2(C)CC(N3C[C@@H](NS(C)(=O)=O)C(F)(F)C3)=NO2)n1 (stereo partly drawn) [Example 12, N-[(3R)-1-{5-[1-(2,6-difluorophenyl)-4-methyl-1H-imidazol-2-yl]-5-methyl-4,5-dihydro-1,2-oxazol-3-yl}-4,4-difluoropyrrolidin-3-yl]methanesulfonamide]  71%
19. Cc1cnc(C2CC(O[C@H]3C[C@@H](NS(C)(=O)=O)C3)=NO2)c(-c2c(F)cccc2F)c1 (stereo partly shown) [Example 20, N-[(1s,3s)-3-({5-[3-(2,6-difluorophenyl)-5-methylpyridin-2-yl]-4,5-dihydro-1,2-oxazol-3-yl}oxy)cyclobutyl]methanesulfonamide]  65%
20. Cc1cnc(C2CC(C3CC(NS(C)(=O)=O)C3)=NO2)c(-c2c(F)cc(F)cc2F)c1 (stereo not shown) [Example 23, N-[(1s,3s)-3-{5-[5-methyl-3-(2,4,6-trifluorophenyl)pyridin-2-yl]-4,5-dihydro-1,2-oxazol-3-yl}cyclobutyl]methanesulfonamide]  42%
21. CCS(=O)(=O)NC[C@@H]1CCCN1C1=NOC(c2ncc(C)cc2-c2c(F)cccc2F)C1 (stereo partly drawn) [Example 26, N-{[(2S)-1-{5-[3-(2,6-difluorophenyl)-5-methylpyridin-2-yl]-4,5-dihydro-1,2-oxazol-3-yl}pyrrolidin-2-yl]methyl}ethanesulfonamide]  42%
22. Cc1cnc(C2CC([C@H]3CC[C@@H](NS(C)(=O)=O)CC3)=NO2)c(-c2c(F)cc(F)cc2F)c1 (stereo partly shown) [Example 24, N-[(1s,4s)-4-{5-[5-methyl-3-(2,4,6-trifluorophenyl)pyridin-2-yl]-4,5-dihydro-1,2-oxazol-3-yl}cyclohexyl]methanesulfonamide]  20%
